Marks after values point to notes of the source that are not given here.
What was measured:
male Wistar rats [1] = experiment: Withdrawal syndrome due to naloxone administration in morphine-treated rats; format: in vivo; details: morphine for 10 days; for Weight loss: mean loss of body weight 1 hour after naloxone injection (1 mg/kg subcutaneous); for Latency of stereotype jumps: then naloxone 1 mg/kg subcutaneous, cut-off time 900 sec.
Method: After repeated treatment with morphine for a period of 10 days, the rats were all weighed and administered naloxone (1 mg/kg dissolved in saline solution) by subcutaneous injection. The resulting withdrawal syndrome was assessed by measuring the latency of onset of "stereotype jumps" from a circular platform measuring 35 cm in diameter and 70 cm in height. A cut-off time of 900 sec. was used. In 5 groups of animals, naloxone administration was combined with administration of saline, VCGB, GHB, LAC and VC, respectively.
The body weight of the animals was then measured again 1 hour after naloxone injection and the mean loss of body weight was calculated for each group of animals treated.

male Wistar rats [2] = experiment: Heroin self-administration behaviour in rats; details: 100 mg/kg daily intraperitoneal; for number of heroin self-administrations: in the space of 3 hours
male Wistar rats [3] = experiment: Hot-plate test: onset of habituation to the analgesic action of morphine; format: in vivo; details: for mean latency: after 15 days of daily morphine, substance 100 mg/kg i.p., morphine 10 mg/kg i.p., plate 51°C
Method: Morphine addiction was induced in the rats by daily injections for a period of 15 days.
Five different groups of animals also received saline solution, VCGB, GHB, LAC or VC (100 mg/kg i.p.), respectively.

O=C(O)CCCO [GHB, gamma-hydroxybutyric acid]
Weight loss (male Wistar rats [1]): 15.5 ± 0.6 g | Latency of stereotype jumps (male Wistar rats [1]): 451 ± 63 s | number of heroin self-administrations (male Wistar rats [2]; 3rd day): 7.5 ± 0.6 | number of heroin self-administrations (male Wistar rats [2]; 4th day): 8.0 ± 0.7 | number of heroin self-administrations (male Wistar rats [2]; 5th day): 9.0 ± 0.6 | mean latency (male Wistar rats [3]; T 0): 5.5 s | mean latency (male Wistar rats [3]; T 30): 13.0* sec. | mean latency (male Wistar rats [3]; T 240): 6.0 s

CC(=O)OC(CC(=O)[O-])C[N+](C)(C)C [LAC, acetyl L-carnitine]
Weight loss (male Wistar rats [1]): 18.6 ± 2.1 g | Latency of stereotype jumps (male Wistar rats [1]): 465 ± 99 s | number of heroin self-administrations (male Wistar rats [2]; 3rd day): 7.0 ± 0.5 | number of heroin self-administrations (male Wistar rats [2]; 4th day): 9.2 ± 0.5 | number of heroin self-administrations (male Wistar rats [2]; 5th day): 8.9 ± 0.8 | mean latency (male Wistar rats [3]; T 0): 6.0 s | mean latency (male Wistar rats [3]; T 30): 10.0* sec. | mean latency (male Wistar rats [3]; T 240): 6.0 s

CC(C)CC(=O)O[C@H](CC(=O)[O-])C[N+](C)(C)C [VC, isovaleryl L-carnitine]
Weight loss (male Wistar rats [1]): 16.6 ± 2.1 g | Latency of stereotype jumps (male Wistar rats [1]): 480 ± 99 s | number of heroin self-administrations (male Wistar rats [2]; 3rd day): 7.2 ± 0.5 | number of heroin self-administrations (male Wistar rats [2]; 4th day): 9.5 ± 0.5 | number of heroin self-administrations (male Wistar rats [2]; 5th day): 8.8 ± 0.5 | mean latency (male Wistar rats [3]; T 0): 6.0 s | mean latency (male Wistar rats [3]; T 30): 10.0* sec. | mean latency (male Wistar rats [3]; T 240): 6.0 s

CC(C)CC(=O)O[C@H](CC(=O)OCCCC(=O)[O-])C[N+](C)(C)C [VCGB, isovaleryl L-carnitine gamma-hydroxybutyrate]
Weight loss (male Wistar rats [1]): 12.3 ± 0.6 g | Latency of stereotype jumps (male Wistar rats [1]): 564 ± 69 s | number of heroin self-administrations (male Wistar rats [2]; 3rd day): 6.3 ± 0.5 | number of heroin self-administrations (male Wistar rats [2]; 4th day): 6.8 ± 0.4 | number of heroin self-administrations (male Wistar rats [2]; 5th day): 6.3 ± 0.5 | effect on number of heroin self-administrations (in words) (male Wistar rats [2]; summary of the table): very long-lasting action in reducing the number of self-administrations | mean latency (male Wistar rats [3]; T 0): 6.5 s | mean latency (male Wistar rats [3]; T 30): 14.0* sec. | mean latency (male Wistar rats [3]; T 240): 10.0* sec. | effect on habituation to morphine-induced analgesia (in words) (male Wistar rats [3]; summary of the table, 100 mg/kg i.p.): reduce habituation to morphine-induced analgesia to an appreciable extent
